{
  "source": "patent US11369695B2",
  "about": "“Fat droplets in retina and optic nerve as a diagnostic marker for neurodegeneration and glaucoma in humans” (The Jackson Laboratory, priority 2016, dated 2022)",
  "key": {"DBA/2J (D2) mice [1]": {"tested_on": "DBA/2J (D2) mice", "conditions": "cited from earlier work"}, "DBA/2J (D2) mice [2]": {"tested_on": "DBA/2J (D2) mice", "conditions": "cited from earlier work", "remark": "listed apart in the source"}, "mice": {"tested_on": "mice", "assay": "PQQ tolerability in mice", "type": "in vivo, mouse", "method": "With regard to PQQ, it is tolerated at least at 2,000 mg/kg/day in mice. The neuroprotective effect provided by PQQ is about 20-2,000 mg/kg/day, about 100-1,000 mg/kg/day, or about 500 mg/kg/day in mice."}, "DBA/2J (D2) mice [3]": {"tested_on": "DBA/2J (D2) mice", "assay": "Intraocular pressure (IOP) in D2 mice", "type": "in vivo, mouse", "conditions": "NAM in drinking water (data not shown)", "from_the_text": "Following the onset of iris disease around 6 months of age, intraocular pressure began to increase (FIG. 2). A typical “normal” IOP in a D2 mouse eye is ˜13 mmHg, which increases progressively from 6 to 12 months, to values that can typically exceed 20 mmHg. By 9 months of age, IOP was/had been elevated in the majority of the eyes of the D2 mice. IOP increases in D2 eyes were age-related and asynchronous, as well as being highly variable. In our colony, females tend to have higher/early onsets of elevated IOP (FIG. 2). […] Importantly, NAM was protective both prophylactically (starting at 6-month, early start; prior to IOP elevation in the vast majority of eyes in the colony), and as an intervention (starting at 9-month, late start; when the majority of eyes have had continuing IOP elevation). This signifies that NAM is able to both prevent neuronal injury from occurring as well as limiting neuronal injury to already insulted neurons (FIG. 6). This is important for human disease where treatment would only start once a disease has become symptomatic and thus detectable."}, "DBA/2J (D2) mice [4]": {"tested_on": "DBA/2J (D2) mice", "assay": "Glaucomatous neurodegeneration in D2 mice at 12 months (optic nerve damage grading, soma loss, visual function, axonal transport)", "type": "in vivo, mouse", "conditions": "for protection from developing glaucoma / optic nerve degeneration: NAM 550 mg/kg/d in drinking water, assessed at 12 months", "method": "From left, DBA/2J control—D2 mice on standard drinking water; Nicotinamide)(NAM^Lo) early start—D2 mice on standard drinking water supplemented with 550 mg/kg/day NAM from 6 months of age (pre-disease); Nicotinamide)(NAM^Lo) late start—D2 mice on standard drinking water supplemented with 550 mg/kg/day NAM from 9 months of age (during disease); Nicotinamide (NAM^Hi) early start—D2 mice on standard drinking water supplemented with 2,000 mg/kg/day NAM from 6 months of age (pre-disease); Pyruvate—D2 mice on standard drinking water supplemented with 500 mg/kg/day pyruvate from 6 months of age (pre-elevated IOP); NAM^Lo+Pyruvate—D2 mice on standard drinking water supplemented with 550 mg/kg/day NAM+500 mg/kg/day pyruvate from 6 months of age (pre-disease); D2.Wld^S—D2 mice carrying the Wld^S transgene (altered NMNAT enzyme that enhances enzymatic activity) on standard drinking water; D2.Wld^S+Nicotinamide)(NAM^Lo)—D2 mice carrying the Wld^S transgene (altered NMNAT enzyme) on standard drinking water with 550 mg/kg/day NAM from 6 months of age (pre-elevated IOP).\nTo determine the fate of the retinal ganglion cells following prolonged period of elevated IOP in the D2 mice, we used PPD staining of the optic nerve to reveal the extent of retinal and/or optic nerve neurodegeneration, as PPD darkly stains the axoplasm of dead/dying axons.\nFor this purpose, we distinguished optic nerves as having one of three levels of damage: no glaucoma, where there is <5% axon loss in the optic nerve, these nerves are indistinguishable from young controls; moderate glaucoma, with […], and evidence of darkly stained axons; or severe glaucoma, with >50% axon loss, and typically accompanied by gliosis/gliotic scarring.\nWe conducted this in vivo experiment using a large cohort of D2 mice. In this experiment, optic nerves were classified into three damage levels: NO (no glaucoma), MOD (moderate damage), and SEV (severe damage).\nExperimental D2 mice were divided into the following groups and were given:\nW=water (standard mouse water)\nNAM or NAM^Lo=550 mg/kg/d NAM in drinking water\nEarly=early start=pre-glaucoma=6-month of age (i.e. prophylactic)\nLate=late start=during glaucoma=9-month of age (when mice already have high IOP, i.e. interventional, and more relative to human glaucoma)\nMice were then assessed at 12-month for optic nerve damage, soma loss, visual function, and axonal transport (data not shown)."}, "retinal ganglion cells": {"tested_on": "retinal ganglion cells", "assay": "Retinal ganglion cell analyses in NAM-treated D2 mice (data not shown)", "type": "in vivo, mouse", "from_the_text": "In addition, many ocular and neurodegenerative diseases occur in the elderly due to age-dependent molecular chances that increase susceptibility to damage. […] Furthermore, axonal degeneration and somal shrinkage may represent common components in some neurodegenerative diseases. NAM prevents these changes based on the data above at least in glaucoma treatment."}, "NAD levels": {"tested_on": "NAD levels", "assay": "NAD levels in NAM-treated D2 mice", "type": "in vivo, mouse", "conditions": "NAM 550 mg/kg/d in drinking water"}, "[5]": {"tested_on": "lipid droplets in DBA/2J retinas", "assay": "Lipid droplet formation in the inner retina by Oil Red O staining", "type": "in vivo, mouse", "conditions": "12 month of age DBA/2J mice, versus untreated", "method": "Lipid droplet formation in the inner retina was assessed by Oil Red O staining, which brightly stained neutral triglycerides and lipids. Following intraocular pressure elevation, lipid droplets were present within the inner retina of DBA/2J mice. At 6 months of age, the majority of retinas were negative for lipid droplets. By 9 months of age, small and dispersed lipid droplets were present in some eyes. By 12 months of age, lipid accumulation was present in the majority of eyes in retinas that had not yet developed glaucoma (no glaucoma). In eyes that had developed severe glaucoma, lipid droplets were present across the retina in the majority of eyes. GCL=ganglion cell layer (retinal ganglion cell bodies), IPL=inner plexiform layer (retinal ganglion cell dendrites and synapses). Haematoxylin (dark blue/purple) is a general marker of cell nuclei used as a counter-stain.\nLipid droplet formation was assessed in retinas from nicotinamide-treated DBA/2J mice. […] GCL=ganglion cell layer (retinal ganglion cell bodies), IPL=inner plexiform layer (retinal ganglion cell dendrites and synapses). Haematoxylin (dark blue/purple) is a general marker of cell nuclei used as a counter-stain.\nAgain, lipid/fat droplet formation in the inner retina was assessed by Oil Red O staining. […]\nLipid droplet formation was assessed in retinas from nicotinamide-treated DBA/2J mice."}},
  "note": "“Also recorded” adds a separate entry of the source.",
  "data": [
    {"molecule": "CC(C)OC(=O)CCC/C=C\\C[C@@H]1[C@@H](CC[C@@H](O)CCc2ccccc2)[C@H](O)C[C@@H]1O", "note": "[Latanoprost]", "values": [
      {"measurement": "IOP after topical administration", "setting": "DBA/2J (D2) mice [1]", "result": "lowers IOP"},
      {"measurement": "risk of developing neurodegeneration after topical administration", "setting": "DBA/2J (D2) mice [2]", "result": "reduces the risk of developing neurodegeneration"}
    ]},
    {"molecule": "CC(C)(C)NC[C@H](O)COc1nsnc1N1CCOCC1", "note": "[timolol]", "values": [
      {"measurement": "IOP after topical administration", "setting": "DBA/2J (D2) mice [1]", "result": "lowers IOP"},
      {"measurement": "risk of developing neurodegeneration after topical administration", "setting": "DBA/2J (D2) mice [2]", "result": "reduces the risk of developing neurodegeneration"}
    ]},
    {"molecule": "O=C(O)c1cc(C(=O)O)c2c(n1)C(=O)C(=O)c1cc(C(=O)O)[nH]c1-2", "note": "[PQQ, Pyrroloquinoline Quinone]", "values": [
      {"measurement": "tolerated dose", "setting": "mice", "result": "≥ 2,000 mg/kg/day"}
    ]},
    {"molecule": "CC12CC3CC(C)(C1)CC(N)(C3)C2", "note": "[memantine]", "values": [
      {"measurement": "IOP after topical administration", "setting": "DBA/2J (D2) mice [1]", "result": "lowers IOP"},
      {"measurement": "risk of developing neurodegeneration after topical administration", "setting": "DBA/2J (D2) mice [2]", "result": "reduces the risk of developing neurodegeneration"}
    ]},
    {"molecule": "NC(=O)c1cccnc1", "note": "[NAM, nicotinamide]", "values": [
      {"measurement": "effect on IOP", "setting": "DBA/2J (D2) mice [3]", "result": "did not alter IOP"},
      {"measurement": "protection from developing glaucoma / optic nerve degeneration", "setting": "DBA/2J (D2) mice [4]", "result": "protect the D2 mice from all detectable signs of glaucoma through 12 months; also recorded: robustly protected D2 mice from developing glaucoma"},
      {"measurement": "protection from developing glaucoma / optic nerve degeneration", "setting": "DBA/2J (D2) mice [4]; listed as nicotinamide", "result": "protects against optic nerve degeneration"},
      {"measurement": "glaucoma in the majority of the treated eyes, including PERG", "setting": "DBA/2J (D2) mice [4]; NAM administration", "result": "completely prevents glaucoma"},
      {"measurement": "protection from glaucoma, prophylactic", "setting": "DBA/2J (D2) mice [4]; NAM early start at 6-month, prior to IOP elevation", "result": "protects against glaucomatous neurodegeneration prophylactically; also recorded: protective"},
      {"measurement": "protection from glaucoma, as an intervention", "setting": "DBA/2J (D2) mice [4]; NAM late start at 9-month, continuing IOP elevation", "result": "protective"},
      {"measurement": "early synapse loss", "setting": "retinal ganglion cells; data not shown", "result": "protects early synapse loss"},
      {"measurement": "formation of dysfunctional mitochondria with abnormal cristae", "setting": "retinal ganglion cells; data not shown", "result": "inhibits the formation of dysfunctional mitochondria with abnormal cristae"},
      {"measurement": "retinal ganglion cell dysfunction and degeneration", "setting": "retinal ganglion cells; data not shown", "result": "robustly prevent retinal ganglion cell dysfunction and degeneration"},
      {"measurement": "age-related gene expression / molecular changes in RGCs", "setting": "retinal ganglion cells; gene expression, data not shown", "result": "prevents age-related gene expression In RGCs; also recorded: prevents age-related molecular changes"},
      {"measurement": "axonal degeneration and somal shrinkage", "setting": "retinal ganglion cells; glaucoma", "result": "prevents axonal degeneration and somal shrinkage"},
      {"measurement": "PARP activation", "setting": "retinal ganglion cells; immunostaining, data not shown", "result": "decreases PARP activation"},
      {"measurement": "molecular signs of glaucoma", "setting": "retinal ganglion cells; immunostaining, data not shown", "result": "prevents molecular signs of glaucoma"},
      {"measurement": "decline of NAD levels", "setting": "NAD levels", "result": "prevent the decline of NAD levels"},
      {"measurement": "lipid droplet accumulation in retinas", "setting": "[5]", "result": "completely prevented"}
    ]}
  ]
}
